# In US20240425464A1, “Substituted Monohydrazides as Potent Antifungal Agents” (University of Kentucky Research Foundation, priority 2023, published 2024):
# Several values for one entry are separate records, joined by “and”; a condition that tells them apart may be missing. Equal values may be shown once. Read-outs that look alike come from different tables or passages of the source.
# What was measured:
# Format in all cases: cell-based, Candida albicans
# [1] = test system: C. albicans ATCC 10231 (strain A); assay: MIC determination by in vitro antifungal assay (CLSI broth dilution); details: strain A = C. albicans ATCC 10231, no visible growth, 48 h at 35° C.
# Method in brief: (§1)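 Twofold dilutions spanning 0.06–31.3 μg/mL were incubated with fungi for 48 h at 35° C in MOPS-buffered RPMI 1640 (pH 7.0), following modified CLSI M27-A3 and M38-A2 methods. Yeast cells were grown overnight in YPD, set to OD600 0.12 (~1×10^6 CFU/mL), then diluted 1:100.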
# [2] = test system: C. albicans ATCC MYA-1003 (G); assay: MIC determination by in vitro antifungal assay; details: strain G = C. albicans ATCC MYA-1063(R) (footnote), MYA-1003 in text
# Method in brief: as §1
# [3] = test system: C. albicans ATCC MYA-2876 (C); assay: MIC determination by in vitro antifungal assay; details: strain C = C. albicans ATCC MYA-2876(S)
# Method in brief: as §1
# [4] = test system: C. albicans ATCC 90819 (D); assay: MIC determination by in vitro antifungal assay
# Method in brief: as §1
# [5] = test system: C. albicans ATCC MYA-1237 (F); assay: MIC determination by in vitro antifungal assay; details: strain F = C. albicans ATCC MYA-1237(R)
# Method in brief: as §1
# [6] = test system: C. albicans ATCC 64124 (B); assay: MIC determination by in vitro antifungal assay
# Method in brief: as §1
# [7] = test system: C. albicans ATCC MYA-2310 (E); assay: MIC determination by in vitro antifungal assay; details: strain E = C. albicans ATCC MYA-2310
# Method in brief: as §1
# [8] = strain D = C. albicans ATCC 90819(R)
# [9] = strain B = C. albicans ATCC 64124
# [10] = Candida albicans, ATCC10231, 48 h, read-out: MIC
# [11] = Candida albicans, read-out: MIC
# [12] = Candida albicans, ATCC90819, strain D = C. albicans ATCC 90819(R), read-out: MIC
# [13] = Candida albicans, ATCC64124, strain B = C. albicans ATCC 64124, read-out: MIC
Structure (SMILES),MIC [1] [μg/mL^−1],MIC [2],MIC [3] [μg/mL^−1],"MIC [4, 8] [μg/mL^−1]",MIC [5] [μg/mL^−1],"MIC [6, 9] [μg/mL^−1]",MIC [7] [μg/mL^−1],"MIC [1, 10] [mg/L]","MIC [2, 11] [mg/L]","MIC [3, 11] [mg/L]","MIC [4, 12] [mg/L]","MIC [5, 11] [mg/L]","MIC [6, 13] [mg/L]","MIC [7, 11] [mg/L]"
O=C(NNc1ccc(Cl)cc1)c1nc(F)ccc1F [Compound 8e],3.9,3.9 μg/mL^−1,3.9,7.8,>31.3,7.8,3.9,,,,,,,
O=C(NNc1cc(F)cc(F)c1)c1ccc(F)cc1F [Compound 1i],,,,,,,,3.9,15.6,15.6,15.6,7.8,15.6,15.6
O=C(NNc1ccc(Cl)cc1)c1cccc(F)n1 [Compound 5e],1.95,0.98 μg/mL^−1,1.95,3.9,0.98,1.95,1.95,,,,,,,
O=C(NNc1cccc(Cl)c1)c1cnccn1 [Compound 9b],,,,,,,,0.24,0.98,1.95,3.9,0.98,1.95,7.8
O=C(NNc1ccc(F)cc1F)c1ccccn1 [Compound 2g],,,,,,,,0.12,0.49,0.98,0.98,0.49,1.95,31.3
O=C(NNc1cc(F)cc(F)c1)c1cnccn1 [Compound 9i],,,,,,,,0.24,1.95,7.8,3.9,1.95,3.9,15.6
COc1cccc(NNC(=O)c2nc(F)ccc2F)c1 [Compound 8c],,,,,,,,0.98,1.95,3.9,7.8,1.95,1.95,3.9
O=C(NNc1ccc(F)cc1F)c1ccc(Br)cn1 [Compound 4g],,,,,,,,3.9,15.6,0.98,3.9,1.95,15.6,> 31.3
"C[C@@H]1[C@H](O)[C@@H](C)/C=C/C=C/C=C/C=C/C=C/C=C/C=C/[C@H](O[C@@H]2O[C@H](C)[C@@H](O)[C@H](N)[C@@H]2O)C[C@@H]2O[C@](O)(C[C@@H](O)C[C@@H](O)[C@H](O)CC[C@@H](O)C[C@@H](O)CC(=O)O[C@H]1C)C[C@H](O)[C@H]2C(=O)O [AmB, amphotericin B, reference compound]",1.95,0.98 μg/mL^−1 and 1.95 μg/mL^−1,1.95,0.98,1.95,1.95,0.98,,,,,,,
O=C(NNc1cc(F)ccc1F)c1ccccn1 [Compound 2h],,,,,,,,0.12,0.98,3.9,0.98,1.95,1.95,1.95
O=C(NNc1cccc(F)c1)c1ncc(F)cc1F [Compound 7a],0.24,1.95 μg/mL^−1,1.95,3.9,3.9,0.98,1.95,,,,,,,
O=C(NNc1ccc(Cl)cc1)c1ccc(F)cc1F [Compound 1e],1.95,7.8 μg/mL^−1,15.6,3.9,1.95,15.6,7.8,,,,,,,
O=C(NNc1cccc(F)c1)c1ccc(F)cc1F [Compound 1a],0.24,1.95 μg/mL^−1,3.9,7.8,0.98,1.95,3.9,,,,,,,
COc1ccc(NNC(=O)c2ccc(Br)cn2)cc1 [Compound 4f],,,,,,,,3.9,1.95,1.95,3.9,0.98,3.9,3.9
COc1ccc(NNC(=O)c2cccc(F)n2)cc1 [Compound 5f],,,,,,,,0.24,0.98,0.98,1.95,0.98,1.95,0.98
COc1ccc(NNC(=O)c2nc(F)ccc2F)cc1 [Compound 8f],,,,,,,,1.95,0.98,1.95,1.95,0.98,1.95,1.95
